In patent US20130171162A1, “COMPOSITIONS AND METHODS FOR THE PREVENTION OF OXIDATIVE DEGRADATION OF PROTEINS” (priority 2008, published 2013):
“Also recorded” adds a separate entry of the source. Like-named read-outs stand apart in the source and are kept apart here.

What was measured:
anti-VEGF antibody = conditions: for protection of anti-VEGF antibody against oxidation (basic peaks in IEC): AAPH, free Trp 2 or 10 mg/mL
PTH [1] = experiment: Screening stabilizers for PTH oxidized by AAPH, H2O2 plus Fe(II), H2O2; rp-HPLC; assay type: physicochemical
PTH [2] = conditions: AAPH, FIG. 11
PTH [3] = experiment: Screening stabilizers for PTH oxidized by AAPH, H2O2 plus Fe(II), H2O2; rp-HPLC; assay type: physicochemical; conditions: for protection of Trp residue in PTH: stress AAPH 1 mM, stabilizer 2 mg/mL; for protection of Trp residue in PTH / protection of PTH against oxidation: 40° C., 6 hours; for protection of PTH against oxidation: stress AAPH
Procedure: The protein solution was subsequently stressed by the addition of 1 mM of AAPH, and incubated at 40° C. for 6 hours.
The experiments were carried on a Waters HPLC instrument using a C4 (Vydac, 214TP, 5μ, 2.1×250 mm). The solvent A was 0.1% trifluoracetic acid (TFA) in H2O and the solvent B was 0.08% TFA in acetonitrile. The samples were analyzed with a linear gradient from 20% B to 80% B at a flow rate of 0.2 mL/min in 45 min. The column temperature was set at 30° C.

[4] = Anti-VEGF antibody oxidation, IEC chromatogram; conditions: for oxidation / oxidative species in basic region of IEC: H2O2
[5] = stress H2O2 plus Fe(II) (Fenton reaction), 40° C., 6 hours

O=C([O-])CN(CCN(CC(=O)[O-])CC(=O)O)CC(=O)O.[Na+].[Na+] [EDTA, EDTA disodium]
effect on Trp 50 oxidation of anti-VEGF antibody (anti-VEGF antibody; EDTA added as stabilizer): inhibited; also recorded: improved stability

OC[C@H]1O[C@@](CO)(O[C@H]2O[C@H](CO)[C@@H](O)[C@H](O)[C@H]2O)[C@@H](O)[C@@H]1O [Sucrose, sucrose]
protection of PTH against oxidation (PTH [1]; [5]): less effective than mannitol

CSCC[C@H](N)C(=O)O [free methionine, L-Methionine]
Met oxidation of PTH, relative quantification by EIC (PTH [2]): suppressed the Met oxidation significantly | effect on the oxidation of Trp in PTH (Trp[O] peak) (PTH [1]; free Met 2 mg/mL, FIG. 6): no effect | oxidation of Met residues in PTH (Met[O]-PTH peaks) (PTH [1]; free Met 2 mg/mL, FIG. 6): significantly reduced | protection of PTH against oxidation (PTH [1]; stress H2O2, 40° C., 6 hours): protected | protection of PTH against oxidation (PTH [1]; stress H2O2, 40° C., 6 hours, listed as Free Met): neutralized the effect of the oxidants H2O2 | protection of PTH against oxidation (PTH [1]; [5]): protected | protection of PTH against oxidation (PTH [1]; stress H2O2 plus Fe(II) (Fenton reaction), 40° C., 6 hours, listed as Free Met): neutralized the effect of the oxidants H2O2

N[C@@H](Cc1c[nH]c2ccccc12)C(=O)O [free tryptophan, L-Tryptophan]
Met[O]-PTH peaks (PTH [3]; free Trp 2 mg/mL, AAPH stress): prominent | protection of Trp residue in PTH (PTH [3]): good protection | protection of PTH against oxidation (PTH [3]): effective only against the oxidation by AAPH | Trp oxidation of PTH, relative quantification by EIC (PTH [2]): suppressed the Trp oxidation significantly | protection of anti-VEGF antibody against oxidation (basic peaks in IEC) (anti-VEGF antibody): excellent protection | protection of anti-VEGF antibody against oxidation (basic peaks in IEC) (anti-VEGF antibody; listed as Free Trp): effective in mitigating oxidation | protection of anti-VEGF antibody against oxidation (basic peaks in IEC) (anti-VEGF antibody; listed as free Trp): dropped to the baseline | protection of anti-VEGF antibody against oxidation (basic peaks in IEC) (anti-VEGF antibody; listed as tryptophan): effectively blocked the oxidative reaction | Met[O]-PTH peaks (PTH [1]; free Trp 2 mg/mL, Fenton reaction): much less so | protection of Trp residue in PTH (PTH [1]; stress Fenton reaction, stabilizer 2 mg/mL, 40° C., 6 hours): good protection | protection of PTH against oxidation (PTH [1]; stress H2O2, 40° C., 6 hours): no protection

OC[C@@H](O)[C@@H](O)[C@H](O)[C@H](O)CO [mannitol, Mannitol]
protection of PTH against oxidation (PTH [3]): not protected by mannitol at all | protection of PTH against oxidation (PTH [1]; stress H2O2, 40° C., 6 hours): not protected by mannitol at all | protection of PTH against oxidation (PTH [1]; [5]): effective; also recorded: complete protection

Cc1ncc(CO)c(CO)c1O [pyridoxine]
protection of Trp residue in PTH (PTH [3]): excellent protection

Cc1c(C)c2c(c(C)c1O)CCC(C)(C(=O)O)O2 (stereo not shown) [trolox, 6-hydroxy-2,5,7,8-tetramethylchroman-2-carboxylic acid]
protection of Trp residue in PTH (PTH [3]): excellent protection

anti-VEGF antibody: humanized anti-VEGF antibody fragment, indicated for the treatment of neovascular (wet) age-related macular degeneration
oxidation / peaks in basic region of IEC ([4]; AAPH): produced additional peaks in the basic region of IEC chromatogram | oxidation / oxidative species in basic region of IEC [4]: did not cause the anti-VEGF antibody oxidation | oxidation / oxidative species in basic region of IEC ([4]; listed as anti-VEGF): no oxidative species in basic region
